Test results as given in patent publication US10351577B2, “Ether analogues of galiellalactone” (Glactone Pharma Development AB, priority 2015, dated 2019).

Legend:
DU145 [1] = assay: WST-1 cell proliferation assay on DU145; type: cell-based; settings: for activity at 10 µM: Homo sapiens, DU-145, 72 h, percent of untreated control cells, read-out: Remaining cell proliferation (%) DU145; for Difference in cell proliferation @ 10 μM (%) (Selectivity) Δ LNCaP − DU145: LNCaP minus DU145
Method: (§1) The functional activity of the example compounds in comparison to galiellalactone was evaluated using a WST-1 proliferation assay (J. Biol. Chem. 2014, 289:15969-15978) on DU145, LNCaP or IL-6 stimulated LNCaP.
(§2) The cells were cultured in 96-well plates (2000 cells/well in 200 μl of medium) and allowed to set for 24 h. The cells were treated with 10 μM of an example compound or galiellalactone for 72 h. Samples were made in triplicate. 20 μl WST-1 solution (Roche Applied Science) was added per well and incubated at 37° C. for 4 h. The absorbance of each well was measured using a scanning multi-well spectrophotometer, ELISA reader at a wavelength of 450 nm and reference wavelength of 690 nm. The results presented in Tables 2 and 3 below are presented as percent of untreated control cells.

LNCaP = assay: WST-1 cell proliferation assay on LNCaP; type: cell-based; settings: Homo sapiens, 72 h, percent of untreated control cells, read-out: Remaining cell proliferation (%) LNCaP
Method: as §1, §2

LNCaP-IL6 [2] = assay: WST-1 cell proliferation assay on IL-6 stimulated LNCaP; type: cell-based; settings: for activity at 10 µM: Homo sapiens, LNCaP, 72 h, percent of untreated control cells, read-out: Remaining cell proliferation (%) LNCaP-IL6; for Difference in cell proliferation @ 10 μM (%) (Selectivity) Δ LNCaP − LNCaPIL6: LNCaP minus LNCaP-IL6
Method: as §1, §2

STAT1 = STAT1 luciferase reporter gene assay in HeLa cells stimulated with IFNg; type: cell-based; settings: Homo sapiens, M-HeLa, IFNg overnight
Method: In order to further asses the properties of the ether analogues of galiellalactone, the STAT1 activity was determined for some of the novel analogues.

[3] = Comparative pharmacokinetic study, single oral dose, plasma by LC-MS/MS; type: in vivo; settings: mouse, CD1 mice, single oral gavage 10 mg/kg
Method: A pharmacokinetic study was performed in CD1 mice to establish plasma exposure following administration of single oral doses of galiellalactone and example 20. Sample analysis was by LC-MS/MS.
Dose solutions were prepared at a drug concentration of 0.5 mg/mL in 5% DMSO in 50 mM citrate buffer (citric acid/sodium citrate pH 4.0) and administered as a 20 mL/kg oral gavage (10 mg/kg).
AUC denotes the plasma exposure of the compound measured with time. More specifically, AUC 0-t is the area under the plasma drug concentration/time curve from 0 minutes to last quantifiable data point. AUC 0-∞ is the area under the plasma drug concentration/time curve from 0 minutes extrapolated to infinity.

DU145 [4] = assay: WST-1 cell proliferation assay on DU145; type: cell-based; settings: for IC50: Homo sapiens, DU-145, dose response study, DU145
LNCaP-IL6 [5] = assay: WST-1 cell proliferation assay on IL-6 stimulated LNCaP; type: cell-based; settings: Homo sapiens, dose response study
IL-6/STAT3 signaling = settings: cited from earlier work

| SMILES | activity at 10 µM (DU145 [1]) [%] | Difference in cell proliferation @ 10 μM (%) (Selectivity) Δ LNCaP − DU145 (DU145 [1]) | activity at 10 µM (LNCaP) [%] | activity at 10 µM (LNCaP-IL6 [2]) [%] | Difference in cell proliferation @ 10 μM (%) (Selectivity) Δ LNCaP − LNCaPIL6 (LNCaP-IL6 [2]) | inhibition at 10 µM (STAT1) [%] | AUC(0-t) ([3]; 0 min to last quantifiable data point) [ng·h/mL] | AUC(0-inf) ([3]; extrapolated to infinity) [ng·h/mL] | half-life ([3]; read-out: Apparent half-life (converted)) [h] | IC50 (DU145 [4]) [µM] | IC50 (LNCaP-IL6 [5]) [µM] | Inhibition of IL-6/STAT3 signaling (IL-6/STAT3 signaling) | Selectivity at IC90 against DU145 and LNCaP-IL6 cell proliferation over LNCaP proliferation (DU145 [4]; FIG. 1B dose response curves) |
| --- | --- | --- | --- | --- | --- | --- | --- | --- | --- | --- | --- | --- | --- |
| C[C@@H]1C=C2C(=O)O[C@@H]3CCC(C1)[C@]23OCc1ccc(NC(=O)C(C)(C)C)nc1 (stereo partly drawn) [Example 9, (4R,5aS,7aS,7bR)-5,5a,6,7,7a,7b-hexahydro-7b-[(6-[(2,2-dimethyl-1-oxopropyl)amino]-3-pyridinyl]methoxy]-4-methyl-indeno[1,7-b]c furan-2(4H)-one] | 9.7 | 57.9 | 67.6 | 2.8 | 64.8 |  |  |  |  |  |  |  |  |
| COc1ccnc(COC23C4=CC(C)CC2CCC3OC4=O)c1 (stereo in doubt) [Example 5, (4R,5aS,7aS,7bR)-5,5a,6,7,7a,7b-hexahydro-7b-[(4-methoxy-2-pyridinyl)methoxy]-4-methyl-indeno[1,7-bc]furan-2(4H)-one] | 19 | 67 | 86 | 15 | 71 | 16 |  |  |  |  |  |  |  |
| C[C@@H]1C=C2C(=O)O[C@@H]3CCC(C1)[C@]23OCc1ccc(N2CCOCC2)nc1 (stereo partly drawn) [Example 15, (4R,5aS,7aS,7bR)-5,5a,6,7,7a,7b-hexahydro-7b-[(6-(N-morpholino)-3-pyridinyl)methoxy]-4-methyl-indeno[1,7-bc]furan-2(4H)-one] | 9.6 | 66.6 | 76.1 | 6.5 | 69.6 | 53 |  |  |  |  |  |  |  |
| COc1ncccc1COC12C3=CC(C)CC1CCC2OC3=O (stereo in doubt) [Example 7, (4R,5aS,7aS,7bR)-5,5a,6,7,7a,7b-hexahydro-7b-[(2-methoxy-3-pyridinyl)methoxy]-4-methyl-indeno[1,7-bc]furan-2(4H)-one] | 16.7 | 42.6 | 59.3 | 7 | 52.3 |  |  |  |  |  |  |  |  |
| C[C@@H]1C=C2C(=O)O[C@@H]3CC[C@H](C1)[C@]23O [Galiellalactone, (−)-Galiellalactone] | 10.8 | 32.8 | 43.6 | 4.7 | 38.9 | 62 | 82 | 87 | 1.2 | 2.52 | 1.16 | submicromolar |  |
| Cc1ncccc1COC12C3=CC(C)CC1CCC2OC3=O (stereo in doubt) [Example 8, (4R,5aS,7aS,7bR)-5,5a,6,7,7a,7b-hexahydro-7b-[(2-methyl-3-pyridinyl)methoxy]-4-methyl-indeno[1,7-bc]furan-2(4H)-one] | 10 | 44.5 | 54.5 | 3 | 51.5 |  |  |  |  |  |  |  |  |
| COC(=O)c1cccc(COC23C4=CC(C)CC2CCC3OC4=O)n1 (stereo in doubt) [Example 6, (4R,5aS,7aS,7bR)-5,5a,6,7,7a,7b-hexahydro-7b-[(6-methoxycarbonyl-2-pyridinyl)methoxy]-4-methyl-indeno[1,7-bc]furan-2(4H)-one] | 16.6 | 49 | 65.6 | 15.9 | 49.7 |  |  |  |  |  |  |  |  |
| CC1C=C2C(=O)OC3CCC(C1)C23OCCc1cccnc1 (stereo in doubt) [Example 3, (4R,5aS,7aS,7bR)-5,5a,6,7,7a,7b-hexahydro-7b-[2-(3-pyridinyl)-ethoxy]-4-methyl-indeno[1,7-bc]furan-2(4H)-one] | 18.7 | 49.9 | 68.6 | 8 | 60.6 | 38 |  |  |  |  |  |  |  |
| Cc1ccc(COC23C4=CC(C)CC2CCC3OC4=O)cn1 (stereo in doubt) [Example 1, (4R,5aS,7aS,7bR)-5,5a,6,7,7a,7b-hexahydro-7b-[(6-methyl-3-pyridinyl)methoxy]-4-methyl-indeno[1,7-bc]furan-2(4H)-one] | 12.9 | 50.3 | 63.2 | 8.6 | 54.6 | 14 |  |  |  |  |  |  |  |
| CC1C=C2C(=O)OC3CCC(C1)C23OCc1ccc(Oc2ccccc2)nc1 (stereo in doubt) [Example 2, (4R,5aS,7aS,7bR)-5,5a,6,7,7a,7b-hexahydro-7b-[(6-phenoxy-3-pyridinyl)methoxy]-4-methyl-indeno[1,7-bc]furan-2(4H)-one] | 36.1 | 49.9 | 86 | 18 | 68 | 1 |  |  |  |  |  |  |  |
| Cc1cnc(COC23C4=CC(C)CC2CCC3OC4=O)cn1 (stereo in doubt) [Example 4, (4R,5aS,7aS,7bR)-5,5a,6,7,7a,7b-hexahydro-7b-[(5-methyl-2-pyrazinyl)methoxy]-4-methyl-indeno[1,7-bc]furan-2(4H)-one] | 11.4 | 44.1 | 55.5 | 10.7 | 44.8 | 12 |  |  |  |  |  |  |  |
| Cc1ccc(COC23C4=CC(C)(F)CC2CCC3OC4=O)cn1 (stereo in doubt) [Example 26, (4R,5aS,7aS,7bR)-5,5a,6,7,7a,7b-hexahydro-7b-[(6-methyl-3-pyridinyl)methoxy]-4-fluoro-4-methyl-indeno[1,7-bc]furan-2(4H)-one] |  |  |  |  |  |  |  |  |  | 1.53 | 1.06 |  | very good selectivity |
